# Experimental data: patent publication US12404283B2, “c-MYC mRNA translation modulators and uses thereof in the treatment of cancer” (Anima Biotech Inc., priority 2022, dated 2025)
# Tested on: c-Myc
# Test: c-Myc immunofluorescence assay
# Assay type: cell-based, human
# Details: A549 cells, 24 hours treatment, anti-c-Myc immunofluorescence
# Experimental: A549 human non-small cell lung carcinoma cells were treated for 24 hours with increasing compound concentration, cells were fixed and stained with a nuclei stain (DAPI) and anti-c-Myc fluorescent antibody. The c-Myc signal was quantified by image analysis, and data was exported and analyzed using TIBCO Spotfire® (TIBCO Corporation). Dose response curves were generated and fitted with logaristic regression to calculate potency (EC50 values). Potency values are presented in Table 2 for all compounds and are shown for selected compounds (FIG. 4).
# A549 cells were grown in 384-wells plates (Perkin Elmer, Cat. 6057300) for 48 hours, treated with compounds and then fixed for 20 min in 4% paraformaldehyde. After that permeabilization was done using 0.1% Triton X-100 in PBS for 20 min. Primary anti-c-Myc antibody (Abcam, ab32072) staining was performed for 90 min at room temperature. Cells then were washed twice with PBS and incubated with secondary antibody (Abcam, ab150075) for 90 min at room temperature. Nuclei were stained with DAPI for 10 min and washed twice with PBS.
# Cell images were taken with Operetta (Perkin Elmer, USA), a wide-field fluorescence microscope at 20× magnification. After acquisition, the images were transferred to Columbus software (Perkin-Elmer) for image analysis. In Columbus, cells were identified by their nucleus, using the “Find Nuceli” module and cytoplasm was detected based on the secondary antibody channel. Subsequently, the fluorescent signal was enumerated in the identified cell region. Then data was exported to a data analysis and visualization software, Tibco Spotfire, USA.
compound,measurement,value
"O=C(NCCCN1CCC(F)CC1)c1ccc2c(c1)sc1nc(-c3ccc(-c4nc[nH]n4)cc3F)cn12 [Compound 483, 2-(2-fluoro-4-(1H-1,2,4-triazol-3-yl)phenyl)-N-(3-(4-fluoropiperidin-1-yl)propyl)benzo[d]imidazo[2,1-b]thiazole-7-carboxamide]",Myc Efficacy (−LogEC50),+++ (+++ ≥6)
"O=C(NCCCN1CCC(F)CC1)c1ccc2c(c1)sc1nc(-c3ccc(C4CCCN4)c(F)c3)cn12 (stereo not shown) [Compound 484, 2-(3-fluoro-4-(pyrrolidin-2-yl)phenyl)-N-(3-(4-fluoropiperidin-1-yl)propyl)benzo[d]imidazo[2,1-b]thiazole-7-carboxamide]",Myc Efficacy (−LogEC50),+++ (+++ ≥6)
"O=C(NCCCN1CCC(F)CC1)c1ccc2c(c1)sc1nc(-c3ccc(C4CC(F)(F)CN4)cc3F)cn12 (stereo not shown) [Compound 490, 2-(4-(4,4-difluoropyrrolidin-2-yl)-2-fluorophenyl)-N-(3-(4-fluoropiperidin-1-yl)propyl)benzo[d]imidazo[2,1-b]thiazole-7-carboxamide]",Myc Efficacy (−LogEC50),+++ (+++ ≥6)
"CN1CCC[C@@H](NC(=O)c2ccc3c(c2)sc2nc(-c4ccc(C5CCCN5)cc4F)cn23)C1 (stereo partly drawn) [Compound 491R, 2-(2-fluoro-4-(pyrrolidin-2-yl)phenyl)-N—((R)-1-methylpiperidin-3-yl)benzo[d]imidazo[2,1-b]thiazole-7-carboxamide]",Myc Efficacy (−LogEC50),+++ (+++ ≥6)
"CN1CCC[C@H](NC(=O)c2ccc3c(c2)sc2nc(-c4ccc(C5CCCN5)cc4F)cn23)C1 (stereo partly drawn) [Compound 491S, 2-(2-fluoro-4-(pyrrolidin-2-yl)phenyl)-N—((S)-1-methylpiperidin-3-yl)benzo[d]imidazo[2,1-b]thiazole-7-carboxamide]",Myc Efficacy (−LogEC50),+++ (+++ ≥6)
"NC(=O)c1ccc2c(c1)sc1nc(-c3ccc(C4CCCN4)cc3F)cn12 (stereo not shown) [Compound 492, 2-(2-fluoro-4-(pyrrolidin-2-yl)phenyl)benzo[d]imidazo[2,1-b]thiazole-7-carboxamide]",Myc Efficacy (−LogEC50),+++ (+++ ≥6)
"O=C(NCCCN1CCC(F)CC1)c1ccc2c(c1)sc1nc(-c3ccc(C4CC(O)CN4)cc3F)cn12 (stereo not shown) [Compound 493, 2-(2-fluoro-4-(4-hydroxypyrrolidin-2-yl)phenyl)-N-(3-(4-fluoropiperidin-1-yl)propyl)benzo[d]imidazo[2,1-b]thiazole-7-carboxamide]",Myc Efficacy (−LogEC50),+++ (+++ ≥6)
"CNC(=O)c1ccc2c(c1)sc1nc(-c3ccc(C4CCCN4)cc3F)cn12 (stereo not shown) [Compound 498, 2-(2-fluoro-4-(pyrrolidin-2-yl)phenyl)-N-methylbenzo[d]imidazo[2,1-b]thiazole-7-carboxamide]",Myc Efficacy (−LogEC50),+++ (+++ ≥6)
"CN1CCC(NC(=O)c2ccc3c(c2)sc2nc(-c4ccc(C5CCCN5)cc4F)cn23)CC1 (stereo not shown) [Compound 500, 2-(2-fluoro-4-(pyrrolidin-2-yl)phenyl)-N-(1-methylpiperidin-4-yl)benzo[d]imidazo[2,1-b]thiazole-7-carboxamide]",Myc Efficacy (−LogEC50),+++ (+++ ≥6)
"O=C(NCCCN1CCC(F)CC1)c1cc2sc3nc(-c4ccc(C5CCCN5)cc4F)cn3c2cn1 (stereo not shown) [Compound 501, 2-(2-fluoro-4-(pyrrolidin-2-yl)phenyl)-N-(3-(4-fluoropiperidin-1-yl)propyl)imidazo[2′,1′:2,3]thiazolo[4,5-c]pyridine-7-carboxamide]",Myc Efficacy (−LogEC50),+++ (+++ ≥6)
"CN1CCC(NC(=O)c2ccc3c(c2)sc2nc(-c4ccc([C@H]5CCCN5)cc4F)cn23)CC1 [Compound 503R, (R)-2-(2-fluoro-4-(pyrrolidin-2-yl)phenyl)-N-(1-methylpiperidin-4-yl)benzo[d]imidazo[2,1-b]thiazole-7-carboxamide]",Myc Efficacy (−LogEC50),+++ (+++ ≥6)
"CN1CCC(NC(=O)c2ccc3c(c2)sc2nc(-c4ccc([C@@H]5CCCN5)cc4F)cn23)CC1 [Compound 503S, (S)-2-(2-fluoro-4-(pyrrolidin-2-yl)phenyl)-N-(1-methylpiperidin-4-yl)benzo[d]imidazo[2,1-b]thiazole-7-carboxamide]",Myc Efficacy (−LogEC50),+++ (+++ ≥6)
"CNC(=O)c1ccc2c(c1)sc1nc(-c3ccc(C4CCNC4)cc3F)cn12 (stereo not shown) [Compound 504, 2-(2-fluoro-4-(pyrrolidin-3-yl)phenyl)-N-methylbenzo[d]imidazo[2,1-b]thiazole-7-carboxamide]",Myc Efficacy (−LogEC50),+++ (+++ ≥6)
"CN1CCC(NC(=O)c2ccc3c(c2)sc2nc(-c4ccc(C5CCNC5)cc4F)cn23)CC1 (stereo not shown) [Compound 505, 2-(2-fluoro-4-(pyrrolidin-3-yl)phenyl)-N-(1-methylpiperidin-4-yl)benzo[d]imidazo[2,1-b]thiazole-7-carboxamide]",Myc Efficacy (−LogEC50),+++ (+++ ≥6)
"CN1CC(NC(=O)c2ccc3c(c2)sc2nc(-c4ccc(C5CCCN5)cc4F)cn23)C1 (stereo not shown) [Compound 506, 2-(2-fluoro-4-(pyrrolidin-2-yl)phenyl)-N-(1-methylazetidin-3-yl)benzo[d]imidazo[2,1-b]thiazole-7-carboxamide]",Myc Efficacy (−LogEC50),+++ (+++ ≥6)
"O=C1CNC(c2ccc(-c3cn4c(n3)sc3cc(C(=O)NCCCN5CCC(F)CC5)ccc34)c(F)c2)C1 (stereo not shown) [Compound 507, 2-(2-fluoro-4-(4-oxopyrrolidin-2-yl)phenyl)-N-(3-(4-fluoropiperidin-1-yl)propyl)benzo[d]imidazo[2,1-b]thiazole-7-carboxamide]",Myc Efficacy (−LogEC50),+++ (+++ ≥6)
"O=C(NCCCN1CCC(F)CC1)c1ccc2c(c1)sc1nc(-c3ccc(C4CCNCC4)cc3F)cn12 [Compound 508, 2-(2-fluoro-4-(piperidin-4-yl)phenyl)-N-(3-(4-fluoropiperidin-1-yl)propyl)benzo[d]imidazo[2,1-b]thiazole-7-carboxamide]",Myc Efficacy (−LogEC50),+++ (+++ ≥6)
"O=C(NCCCN1CCC(F)CC1)c1cc2sc3nc(-c4ccc([C@H]5CCCN5)cc4F)cn3c2cn1 [Compound 509R, (R)-2-(2-fluoro-4-(pyrrolidin-2-yl)phenyl)-N-(3-(4-fluoropiperidin-1-yl)propyl)imidazo[2′,1′:2,3]thiazolo[4,5-c]pyridine-7-carboxamide]",Myc Efficacy (−LogEC50),+++ (+++ ≥6)
"O=C(NCCCN1CCC(F)CC1)c1cc2sc3nc(-c4ccc([C@@H]5CCCN5)cc4F)cn3c2cn1 [Compound 509S, (S)-2-(2-fluoro-4-(pyrrolidin-2-yl)phenyl)-N-(3-(4-fluoropiperidin-1-yl)propyl)imidazo[2′,1′:2,3]thiazolo[4,5-c]pyridine-7-carboxamide]",Myc Efficacy (−LogEC50),+++ (+++ ≥6)
"O=C(NC1CCOCC1)c1ccc2c(c1)sc1nc(-c3ccc(C4CCCN4)cc3F)cn12 (stereo not shown) [Compound 510, 2-(2-fluoro-4-(pyrrolidin-2-yl)phenyl)-N-(tetrahydro-2H-pyran-4-yl)benzo[d]imidazo[2,1-b]thiazole-7-carboxamide]",Myc Efficacy (−LogEC50),+++ (+++ ≥6)
"NC(=O)c1ccc2c(c1)sc1nc(-c3ccc(C4CCNC4)cc3F)cn12 (stereo not shown) [Compound 511, 2-(2-fluoro-4-(pyrrolidin-3-yl)phenyl)benzo[d]imidazo[2,1-b]thiazole-7-carboxamide]",Myc Efficacy (−LogEC50),+++ (+++ ≥6)
"O=C(NCCCN1CCC(F)CC1)c1ccc2c(c1)sc1nc(-c3ccc(C4(O)CCNCC4)cc3F)cn12 [Compound 512, 2-(2-fluoro-4-(4-hydroxypiperidin-4-yl)phenyl)-N-(3-(4-fluoropiperidin-1-yl)propyl)benzo[d]imidazo[2,1-b]thiazole-7-carboxamide]",Myc Efficacy (−LogEC50),+++ (+++ ≥6)
